This is an account of results in patent US20250042896A1, “POLYCYCLIC COMPOUND AS CBL-B INHIBITOR” (HAINAN SIMCERE ZAIMING PHARMACEUTICAL CO., LTD., priority 2021, published 2025).

Test [1] concerns the target Cbl-b protein and UbcH5B-Ub (Homo sapiens (Human), UniProt Q13191). Briefly: Cbl-b activity assay (HTRF, interaction between Cbl-b protein and UbcH5B-Ub). As to conditions: inhibition of interaction between Biotin-Cbl-b protein and Eu-Ubquitin-UbcH5B, HTRF signal 665 nm/615 nm. The test is classed as biochemical. The method, then:
Experiment purpose: Testing of inhibitory activity of compounds on the interaction between Cbl-b protein and UbcH5B-Ub
Experimental method: Eu-Ubquitin-UbcH5B was prepared by incubating Eu-Ubquitin (Cisbio) with UbcH5B (ENZO), E1 (ENZO) at 37° C. for 4 hours. Eu-Ubquitin-UbcH5B was aliquoted and stored at −80° C. Cbl-b activity assay was performed in 384-well plates (Perkin Elmer). 100 nL of 3-fold serial dilutions of compounds (final concentration 10 μM-0.5 nM, starting concentration 10 μM, 3-fold dilution, 10 points, 10th point being 0.5 nM) and 5 μL of 50 nM Biotin-Cbl-b protein (Sigma) were incubated for 1 hour at room temperature, and the reaction buffer was 50 mM HEPES pH 7.0 (Gibco), 100 mM NaCl (Sigma), 0.01% Triton X-100 (Sigma), 0.01% BSA (Sigma) and 1 mM DTT (Invitrogen). 5 μL of Src mixed solution (40 nM Src (R&D), 2 mM ATP (Sigma), 10 mM MgCl2 (Sigma)) was added to the reaction plate and incubated at room temperature for 3 hours. 10 μL of detection solution (12.5 nM Strepdividin-XL665 (Cisbio), 500 nM Eu-Ubquitin-UbcH5B, […] (Invitrogen), 0.004% BSA (Sigma)) was added to the reaction plate, incubated overnight at room temperature, and the HTRF signal (665 nm/615 nm) was read on Envision (Perkin Elmer). IC50 was calculated using IDBS XLfit.
For orientation: In TR-FRET formats the signal depends on donor and acceptor labels being close together.

In a further test the test system is Jurkat T cells. Briefly: Jurkat T activation assay (IL-2 release, ELISA). The test is classed as cell-based. The settings on record: IL-2 release of Jurkat T cells, Anti-Human CD3/CD28 stimulation, 48 hours, IL-2 ELISA. The method, then: Experiment purpose: Testing of effect of compounds on IL-2 release and activation of Jurkat T cells
Experimental method: 96-well cell plates (Corning) were coated with 2 μg/mL Anti-Human CD3 Clone OKT3 (BD) at 37° C. for 4 hours. 3-fold serial dilutions of compounds (final concentration 10 μM-4.6 nM, starting concentration 10 μM, 3-fold dilution, 8 points, 8th point being 4.6 nM) and 220 μL of 1.11×10^6/mL Jurkat T cells (ATCC) were incubated for 1 hour, 5 μL of 45 μg/mL Anti-Human CD28 Clone CD28.2 (BD) was added, mixed evenly, 100 μL was transferred to the aforementioned CD3-coated cell plate, cultured in a cell incubator at 37° C. for 48 hours, and the supernatant was collected and the IL-2 release was detected using an IL-2 ELISA kit (BD). EC50 was analyzed using Prism.
A general note: An ELISA detects its analyte on a solid surface through an enzyme-linked reagent.

Cbl-b protein and UbcH5B-Ub, sequence (Q13191 whole entry, species assumed): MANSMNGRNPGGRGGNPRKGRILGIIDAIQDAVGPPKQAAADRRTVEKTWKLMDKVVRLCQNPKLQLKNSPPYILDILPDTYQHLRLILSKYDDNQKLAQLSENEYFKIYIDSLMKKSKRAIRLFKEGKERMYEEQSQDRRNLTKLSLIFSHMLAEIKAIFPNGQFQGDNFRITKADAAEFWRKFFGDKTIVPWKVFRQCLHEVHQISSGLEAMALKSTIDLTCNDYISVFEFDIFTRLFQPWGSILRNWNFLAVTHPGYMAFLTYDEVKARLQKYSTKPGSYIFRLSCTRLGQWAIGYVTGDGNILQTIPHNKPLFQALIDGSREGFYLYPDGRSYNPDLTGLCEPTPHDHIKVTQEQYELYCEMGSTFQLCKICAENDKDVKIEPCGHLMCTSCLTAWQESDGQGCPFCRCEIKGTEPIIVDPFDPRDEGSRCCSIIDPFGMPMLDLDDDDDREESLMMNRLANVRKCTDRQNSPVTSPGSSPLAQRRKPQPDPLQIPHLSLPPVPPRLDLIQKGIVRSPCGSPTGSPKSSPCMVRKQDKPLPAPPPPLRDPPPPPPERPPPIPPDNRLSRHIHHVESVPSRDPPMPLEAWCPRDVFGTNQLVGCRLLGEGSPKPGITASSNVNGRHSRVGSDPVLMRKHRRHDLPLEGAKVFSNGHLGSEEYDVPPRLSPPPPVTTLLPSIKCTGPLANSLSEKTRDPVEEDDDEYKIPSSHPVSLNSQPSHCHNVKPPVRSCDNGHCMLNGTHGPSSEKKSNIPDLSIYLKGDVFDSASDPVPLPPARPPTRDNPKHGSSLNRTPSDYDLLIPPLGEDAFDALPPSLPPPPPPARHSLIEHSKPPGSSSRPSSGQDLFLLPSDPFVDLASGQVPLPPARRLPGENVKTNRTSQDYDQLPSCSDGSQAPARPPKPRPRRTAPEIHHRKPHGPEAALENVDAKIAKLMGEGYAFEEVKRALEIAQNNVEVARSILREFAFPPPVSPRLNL

As for `Cc1cc(C(C)NC2(C)CCC2)cc2c(=O)c(-c3cccc([C@]4(c5nncn5C)C[C@@H](C)C4)c3)coc12` (stereo partly drawn) [Compound 123, 8-methyl-3-(3-(cis-3-methyl-1-(4-methyl-4H-1,2,4-triazol-3-yl)cyclobutyl)phenyl)-6-(1-((1-methylcyclobutyl)amino)ethyl)-4H-chromen-4-one], in test [1], the IC50 worked out at 5.4 nM. In the test with Jurkat T cells, the EC50 was determined as 53.6 nM.

Regarding `Cc1cc(CN2CCN(C)C[C@@H]2C(C)C)cc2c(=O)c(-c3cccc(C4(c5nncn5C)CC(C)C4)c3)coc12` (stereo partly drawn) [Compound 88], the IC50 in test [1] came out at 32.7 nM.

In test [1], `Cc1cc(CN2CCC[C@H](C)C2)cn2c(=O)c(-c3cccc(C4(c5nncn5C)CC(C)C4)c3)cnc12` (stereo partly drawn) [Compound 11] had a half-inhibitory concentration (IC50) of 31.2 nM.

As to `Cc1cc(CN2CCC[C@H](C)C2)cc2c(=O)c(-c3cccc(C(c4nncn4C)C4CC4)c3)coc12` (stereo partly drawn) [Compound 64, 3-(3-(cyclopropyl(4-methyl-4H-1,2,4-triazol-3-yl)methyl)phenyl)-8-methyl-6-(((S)-3-methylpiperidin-1-yl)methyl)-4H-chromen-4-one], in test [1], the half-maximal inhibitory concentration (IC50) was 38.4 nM.

Regarding `C[C@H]1CCCN(Cc2cc(C(F)(F)F)c3ncc(-c4cccc([C@]5(c6nncn6C)C[C@@H](C)C5)c4)c(=O)n3c2)C1` [Compound 2-P1], the IC50 in test [1] came out at 27.1 nM. Also, in the test on Jurkat T cells, the concentration for a half-maximal effect (EC50) turned out to be 426 nM.

On to `Cc1cc(CN2CCC[C@H](C)C2)cc2c(=O)c(-c3cccc(C4(c5nncn5C)CCO4)c3)coc12` (stereo partly drawn) [Compound 71, 8-methyl-3-(3-(2-(4-methyl-4H-1,2,4-triazol-3-yl)oxetan-2-yl)phenyl)-6-(((S)-3-methylpiperidin-1-yl)methyl)-4H-chromen-4-one], for which the concentration for half-maximal inhibition (IC50) in test [1] was 203 nM.

`Cc1c(F)c(CNC2(C)CCC2)cc2c(=O)c(-c3cccc([C@]4(c5nncn5C)C[C@@H](C)C4)c3)coc12` [Compound 122, 7-fluoro-8-methyl-3-(3-(cis-3-methyl-1-(4-methyl-4H-1,2,4-triazol-3-yl)cyclobutyl)phenyl)-6-(((1-methylcyclobutyl)amino)methyl)-4H-chromen-4-one] came in with an IC50 in test [1] of 12.3 nM. This molecule came in with an EC50 in the test on Jurkat T cells of 555 nM.

`Cc1cc(CN2CCC(F)(F)[C@H](C)C2)cc2c(=O)c(-c3cccc(C(F)(c4nncn4C)C4CC4)c3)coc12` (stereo partly drawn) [Compound 129, 3-(3-(cyclopropylfluoro(4-methyl-4H-1,2,4-triazol-3-yl)methyl)phenyl)-6-(((R)-4,4-difluoro-3-methylpiperidin-1-yl)methyl)-8-methyl-4H-chromen-4-one]: the IC50 in test [1] came out at 17.8 nM.

`Cc1cc(CN2CCC[C@H](C)C2)cc2c(=O)c(-c3cccc([C@](F)(c4nncn4C)C4CC4)c3)coc12` [Compound 120-P1] had a concentration for half-maximal inhibition (IC50) in test [1] of 212 nM.

“(1S,3R)-3-(4-methyl-4H-1,2,4-triazol-3-yl)-3-(3-(8-methyl-6-(((S)-3-methylpiperidin-1-yl)methyl)-4-oxo-4H-chromen-3-yl)phenyl)cyclobutylacetonitrile [Compound 68]” returned a half-inhibitory concentration (IC50) in test [1] of 17.8 nM. Besides, the concentration for a half-maximal effect (EC50) with Jurkat T cells was found to be 456 nM.

The molecule `COc1cc(CN2CCC[C@H](C)C2)cn2c(=O)c(-c3cccc(C4(c5nncn5C)CC(C)C4)c3)cnc12` (stereo partly drawn) [Compound 3] displayed an IC50 in test [1] of 296 nM.

Turning to `CC1CC(c2cncc(-c3coc4c(C5CC5)cc(CN5CCC[C@H](C)C5)cc4c3=O)c2)(c2nncn2C)C1` (stereo partly drawn) [Compound 75, (S)-8-cyclopropyl-3-(5-(3-methyl-1-(4-methyl-4H-1,2,4-triazol-3-yl)cyclobutyl)pyridin-3-yl)-6-((3-methylpiperidin-1-yl)methyl)-4H-chromen-4-one], the IC50 in test [1] came out at 7.4 nM.

`CC1CC(c2cccc(-c3cnc4c(C5CC5)cc(CN5CCC[C@H](C)C5)cn4c3=O)c2)(c2nncn2C)C1` (stereo partly drawn) [Compound 13] yielded an IC50 in test [1] of 31.9 nM.

In test [1], `CC1CC(c2cccc(-c3cnc4c(C(F)(F)F)cc(CN5CCO[C@H](C)C5)cn4c3=O)c2)(c2nncn2C)C1` (stereo partly drawn) [Compound 4] returned a concentration for half-maximal inhibition (IC50) of 268 nM.

The molecule `CC1CC(c2cccc(-c3cnc4c(F)cc(CN5CCC[C@H](C)C5)cn4c3=O)c2)(c2nncn2C)C1` (stereo partly drawn) [Compound 9] showed an IC50 in test [1] of 130 nM.

In test [1], `C[C@H]1CCCN(Cc2cc(C(F)(F)F)c3ncc(-c4cccc(C5(Cc6nncn6C)COC5)c4)c(=O)n3c2)C1` [Compound 5] had an IC50 of 450 nM.

Take `CC1CC(c2cccc(-c3cnc4sc(CN5CCC[C@H](C)C5)cn4c3=O)c2)(c2nncn2C)C1` (stereo partly drawn) [Compound 59, (S)-6-(3-(3-methyl-1-(4-methyl-4H-1,2,4-triazol-3-yl)cyclobutyl)phenyl)-2-((3-methylpiperidin-1-yl)methyl)-5H-thiazolo[3,2-a]pyrimidin-5-one]: the 50% inhibitory concentration (IC50) in test [1] amounted to 43.1 nM.

With `Cc1cc(CN2CCC[C@H](C)C2)cc2c(=O)c(-c3cc(C(F)(F)F)cc(C4(c5nncn5C)CC(C)C4)c3)coc12` (stereo partly drawn) [Compound 66, (S)-8-methyl-3-(3-(3-methyl-1-(4-methyl-4H-1,2,4-triazol-3-yl)cyclobutyl)-5-trifluoromethylphenyl)-6-((3-methylpiperidin-1-yl)methyl)-4H-chromen-4-one], in test [1], the IC50 is 88.9 nM.

The molecule `CC1CC(c2cccc(-c3coc4c(C5CC5)cc(CN5CCC[C@H](C)C5)cc4c3=O)c2)(c2nncn2C)C1` (stereo partly drawn) [Compound 74, (S)-8-cyclopropyl-3-(3-(3-methyl-1-(4-methyl-4H-1,2,4-triazol-3-yl)cyclobutyl)phenyl)-6-((3-methylpiperidin-1-yl)methyl)-4H-chromen-4-one] returned an IC50 in test [1] of 19.1 nM.

In the case of `C[C@H]1CCCN(Cc2cc(C(F)(F)F)c3ncc(-c4cccc(C(c5nncn5C)C5CC5)c4)c(=O)n3c2)C1` (stereo partly drawn) [Compound 63, 3-(3-(cyclopropyl(4-methyl-4H-1,2,4-triazol-3-yl)methyl)phenyl)-7-(((S)-3-methylpiperidin-1-yl)methyl)-9-trifluoromethyl-4H-pyrido[1,2-a]pyrimidin-4-one], the concentration for half-maximal inhibition (IC50) in test [1] amounted to 41.6 nM.

Consider `CC1CC(c2cccc(-c3cnc4c(C(F)(F)F)cc(CN5CC6CCC5C6)cn4c3=O)c2)(c2nncn2C)C1` (stereo not drawn) [Compound 17], for which the IC50 in test [1] was determined as 167 nM.

Take `Cc1cc(CN2CCC[C@H](C)C2)cc2c(=O)c(-c3cccc(C4(c5nncn5C)CC(F)(F)C4)c3)coc12` [Compound 73, (S)-3-(3-(3,3-difluoro-1-(4-methyl-4H-1,2,4-triazol-3-yl)cyclobutyl)phenyl)-8-methyl-6-((3-methylpiperidin-1-yl)methyl)-4H-chromen-4-one]: the half-inhibitory concentration (IC50) in test [1] came out at 64.9 nM.

Molecule `CC1CC(c2cccc(-c3cnc4ccc(CN5CCC[C@H](C)C5)cn4c3=O)c2)(c2nncn2C)C1` (stereo partly drawn) [Compound 1, 3-[3-[3-methyl-1-(4-methyl-4H-1,2,4-triazol-3-yl)cyclobutyl]phenyl]-7-[[(3S)-3-methyl-1-piperidyl]methyl]pyrido[1,2-a]pyrimidin-4-one] came in with a concentration for half-maximal inhibition (IC50) in test [1] of 76.6 nM.

Take `CC1CC(c2cccc(-c3cnc4c(C(F)(F)F)cc(CN5CCN(C)C[C@@H]5C(C)C)cn4c3=O)c2)(c2nncn2C)C1` (stereo partly drawn) [Compound 89]: the half-inhibitory concentration (IC50) in test [1] was 41.6 nM.

In the case of `CC1CC(c2cccc(-c3cnc4c(Br)cc(CN5CCC[C@H](C)C5)cn4c3=O)c2)(c2nncn2C)C1` (stereo partly drawn) [Compound 14], in test [1], the IC50 is 29.3 nM.

In test [1], `Cc1cc(CN2CCC[C@H](C)C2)cc2c(=O)c(-c3cccc(C(C)(C)c4nncn4C)c3)coc12` [Compound 67, (S)-8-methyl-3-(3-(2-(4-methyl-4H-1,2,4-triazol-3-yl)propan-2-yl)phenyl)-6-((3-methylpiperidin-1-yl)methyl)-4H-chromen-4-one] had an IC50 of 96.4 nM.

`CCc1cc(CN2CCC[C@H](C)C2)cn2c(=O)c(-c3cccc(C4(c5nncn5C)CC(C)C4)c3)cnc12` (stereo partly drawn) [Compound 12] yielded an IC50 in test [1] of 63.9 nM.

In test [1], `Cc1cc(CN2CCC[C@H](C)C2)cc2c(=O)c(-c3cccc([C@@](F)(c4nncn4C)C4CC4)c3)coc12` [Compound 120-P2, 3-(3-((R)-cyclopropylfluoro(4-methyl-4H-1,2,4-triazol-3-yl)methyl)phenyl)-8-methyl-6-(((S)-3-methylpiperidin-1-yl)methyl)-4H-chromen-4-one] displayed an IC50 of 7.8 nM.

For `CC1CC(c2cccc(-c3cnc4c(Cl)cc(CN5CCC[C@H](C)C5)cn4c3=O)c2)(c2nncn2C)C1` (stereo partly drawn) [Compound 10], the concentration for half-maximal inhibition (IC50) in test [1] turned out to be 42.9 nM.

For orientation: IC50 means the concentration that inhibits the measured activity by half. Lower therefore signals higher potency. The EC50 is the concentration at which the effect is half-maximal.
